Tests used:
[1] = Toxicity in Swiss mouse assessed as induction of poor posture at 32 mg/kg/day administered for 4 days; format: organism-based; conditions: in vivo, 96 h, time 4 day
[2] = Drug metabolism in Sprague-Dawley rat feces assessed as oxygenated metabolite M+16(2) formation at 10 mg/kg, po by high-resolution mass spectrometry; format: ADME, organism-based; conditions: in vivo
[3] = Ratio of drug level in blood to plasma in Sprague-Dawley rat at 3 mg/kg, iv administered as infusion for 10 mins measured after 1 hr by LC-MS analysis; format: ADME, organism-based; conditions: whole blood and plasma
[4] = Apparent half life in Swiss mouse at 2.7 mg/kg, iv measured up to 24 hrs by LC-MS analysis; format: ADME, organism-based; conditions: in vivo, read-out: t1/2(app) (converted)
[5] = Cmax in Sprague-Dawley rat plasma at 10 mg/kg, po administered via gavage measured at 0.25 to 2.5 hrs by LC-MS analysis; format: ADME, organism-based; set-up: route oral, time upper 2.5 hrs, dose 10 mg/kg, time lower 0.25 hrs
[6] = Drug excretion in Sprague-Dawley rat urine 3 mg/kg, iv measured up to 24 hrs by LC-MS analysis; format: ADME, organism-based; conditions: read-out: Drug excretion
[7] = Efflux ratio of apparent permeability in human Caco2 cells measured over 120 mins by LC-MS analysis; format: ADME, cell-based; conditions: Caco-2
[8] = Metabolic stability of compound in Sprague-Dawley rat blood assessed as parent compound loss measured over 4 hrs by LC-MS analysis; format: ADME, tissue-based; conditions: whole blood, read-out: Drug degradation
[9] = Drug metabolism in Sprague-Dawley rat urine assessed as N-methyl-2-(3'-propoxy-5,5'-bi(1,2,4-triazin)-3-yloxy)ethanamine formation at 10 mg/kg, po by high-resolution mass spectrometry; format: ADME, organism-based; conditions: in vivo
[10] = Drug metabolism in Sprague-Dawley rat urine assessed as oxygenated metabolite M+16(2) formation at 3 mg/kg, iv by high-resolution mass spectrometry; format: ADME, organism-based; conditions: in vivo
[11] = system: Plasmodium; assay: Antimalarial activity against Plasmodium assessed as transmission blocking potential by measuring reduction in female gamete formation by dual gamete formation assay; format: functional, organism-based
[12] = Drug metabolism in Sprague-Dawley rat urine assessed as N-methyl-2-(3'-propoxy-5,5'-bi(1,2,4-triazin)-3-yloxy)ethanamine formation at 3 mg/kg, iv by high-resolution mass spectrometry; format: ADME, organism-based; conditions: in vivo
[13] = Kinetic solubility of compound at pH 2 by nephelometry; format: physicochemical; conditions: buffer, read-out: Kinetic_solubility
[14] = Apparent half life in Sprague-Dawley rat at 3 mg/kg administered as iv infusion for 10 mins measured up to 24 hrs by LC-MS analysis; format: ADME, organism-based; conditions: in vivo
[15] = Apparent half life in Swiss mouse at 27 mg/kg, po measured up to 24 hrs by LC-MS analysis; conditions: in vivo, read-out: t1/2(app) (converted)
[16] = system: Plasmodium falciparum; assay: Antimalarial activity against Plasmodium falciparum 3D7 infected in human red blood cells at 40 uM after 72 hrs by DAPI-staining based assay relative to control; format: functional
[17] = Selectivity ratio of CC50 for HEK293 cells to IC50 for Plasmodium falciparum 3D7; format: toxicity; conditions: human, read-out: Ratio CC50/IC50
[18] = Drug metabolism in mouse liver microsomes assessed as 3'-propoxy-5,5'-bi(1,2,4-triazin)-3-ol formation by LC-MS/MS(CID) analysis; format: ADME, Microsome
[19] = Drug metabolism in human hepatocytes assessed as oxygenated metabolite M+16(1) formation by LC-MS/MS(CID) analysis; format: ADME, cell-based, Hepatocyte
[20] = Drug metabolism in rat hepatocytes assessed as 3'-propoxy-5,5'-bi(1,2,4-triazin)-3-ol formation by LC-MS/MS(CID) analysis; format: ADME, cell-based, Hepatocyte
[21] = target: Cytochrome P450 3A4 (Homo sapiens, UniProt P08684); assay: Inhibition of CYP3A4 in human liver microsomes assessed as reduction in testosterone 6beta-hydroxylation activity by high-pressure liquid chromatography-tandem mass spectrometry; format: ADME
[22] = Drug metabolism in human liver microsomes assessed as N-methyl-2-(3'-propoxy-5,5'-bi(1,2,4-triazin)-3-yloxy)ethanamine formation by LC-MS/MS(CID) analysis; format: ADME, Microsome
[23] = Drug metabolism in Sprague-Dawley rat feces assessed as oxygenated metabolite M+16(1) formation at 10 mg/kg, po by high-resolution mass spectrometry; format: ADME, organism-based; conditions: in vivo
[24] = Drug metabolism in rat liver microsomes assessed as formation of cleavage product M-69 in presence of NADPH by LC-MS/MS(CID) analysis; format: ADME, Microsome
[25] = Drug metabolism in mouse hepatocytes assessed as 3'-propoxy-5,5'-bi(1,2,4-triazin)-3-ol formation by LC-MS/MS(CID) analysis; format: ADME, cell-based, Hepatocyte
[26] = AUC(0 to infinity) in Sprague-Dawley rat plasma at 3 mg/kg, iv measured up to 24 hrs by LC-MS analysis; format: ADME, organism-based; set-up: route intravenous, dose 3 mg/kg, time <=24
[27] = system: Plasmodium falciparum; assay: Antiplasmodial activity against Plasmodium falciparum K1 by 3H-incorporation growth inhibition assay; format: functional, organism-based; conditions: pooled result: one value given for 11 cell lines, strains, targets or settings
[28] = system: HEK293; assay: Cytotoxicity against HEK293 cells incubated for 24 hrs by MTT assay; format: cell-based; conditions: Homo sapiens, HEK293, 24 h
[29] = Apparent permeability across apical to basolateral side in human Caco2 cells measured over 120 mins by LC-MS analysis; format: ADME, cell-based; conditions: Caco-2
[30] = Drug metabolism in human hepatocytes assessed as N-methyl-2-(3'-propoxy-5,5'-bi(1,2,4-triazin)-3-yloxy)ethanamine formation by LC-MS/MS(CID) analysis; format: ADME, cell-based, Hepatocyte
[31] = target: Cytochrome P450 2C19 (Homo sapiens, UniProt P33261); assay: Inhibition of CYP2C19 in human liver microsomes assessed as reduction in […] activity by . high-pressure liquid chromatography-tandem mass spectrometry; format: ADME
[32] = Drug metabolism in rat hepatocytes assessed as oxygenated metabolite M+16(1) formation by LC-MS/MS(CID) analysis; format: ADME, cell-based, Hepatocyte
[33] = Drug metabolism in Sprague-Dawley rat feces assessed as oxygenated metabolite N-methyl-2-(3'-propoxy-5,5'-bi(1,2,4-triazin)-3-yloxy)ethanamine oxide formation at 10 mg/kg, po by high-resolution mass spectrometry; format: ADME, organism-based; conditions: in vivo
[34] = target: Cytochrome P450 2C9 (Homo sapiens, UniProt P11712); assay: Inhibition of CYP2C9 in human liver microsomes assessed as reduction in […] activity by . high-pressure liquid chromatography-tandem mass spectrometry; format: ADME
[35] = Intrinsic clearance in human liver microsomes assessed per mg of protein in presence of NADPH by UPLC-MS analysis; format: ADME, Microsome; conditions: read-out: CLH
[36] = target: Cytochrome P450 2D6 (Homo sapiens, UniProt P10635); assay: Inhibition of CYP2D6 in human liver microsomes assessed as reduction in […] activity by . high-pressure liquid chromatography-tandem mass spectrometry; format: ADME
[37] = Drug metabolism in human hepatocytes assessed as oxygenated metabolite N-methyl-2-(3'-propoxy-5,5'-bi(1,2,4-triazin)-3-yloxy)ethanamine oxide formation by LC-MS/MS(CID) analysis; format: ADME, cell-based, Hepatocyte
[38] = Drug metabolism in mouse hepatocytes assessed as oxygenated metabolite N-methyl-2-(3'-propoxy-5,5'-bi(1,2,4-triazin)-3-yloxy)ethanamine oxide formation by LC-MS/MS(CID) analysis; format: ADME, cell-based, Hepatocyte
[39] = Drug metabolism in mouse liver microsomes assessed as oxygenated metabolite M+16(1) formation by LC-MS/MS(CID) analysis; format: ADME, Microsome

Chain of Cytochrome P450 2C9 (P11712 whole entry): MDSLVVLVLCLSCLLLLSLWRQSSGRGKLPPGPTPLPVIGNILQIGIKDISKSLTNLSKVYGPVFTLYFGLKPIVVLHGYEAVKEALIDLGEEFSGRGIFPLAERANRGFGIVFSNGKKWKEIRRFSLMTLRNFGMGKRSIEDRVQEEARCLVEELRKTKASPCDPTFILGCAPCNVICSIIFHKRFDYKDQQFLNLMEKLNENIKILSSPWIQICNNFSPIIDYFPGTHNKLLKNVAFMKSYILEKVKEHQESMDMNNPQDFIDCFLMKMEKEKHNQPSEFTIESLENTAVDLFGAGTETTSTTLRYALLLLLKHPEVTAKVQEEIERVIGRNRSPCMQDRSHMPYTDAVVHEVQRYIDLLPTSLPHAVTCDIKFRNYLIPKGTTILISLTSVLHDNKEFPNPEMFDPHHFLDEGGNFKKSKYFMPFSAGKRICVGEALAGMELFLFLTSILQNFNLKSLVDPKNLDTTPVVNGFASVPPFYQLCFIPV
Chain of Cytochrome P450 2D6 (P10635 whole entry): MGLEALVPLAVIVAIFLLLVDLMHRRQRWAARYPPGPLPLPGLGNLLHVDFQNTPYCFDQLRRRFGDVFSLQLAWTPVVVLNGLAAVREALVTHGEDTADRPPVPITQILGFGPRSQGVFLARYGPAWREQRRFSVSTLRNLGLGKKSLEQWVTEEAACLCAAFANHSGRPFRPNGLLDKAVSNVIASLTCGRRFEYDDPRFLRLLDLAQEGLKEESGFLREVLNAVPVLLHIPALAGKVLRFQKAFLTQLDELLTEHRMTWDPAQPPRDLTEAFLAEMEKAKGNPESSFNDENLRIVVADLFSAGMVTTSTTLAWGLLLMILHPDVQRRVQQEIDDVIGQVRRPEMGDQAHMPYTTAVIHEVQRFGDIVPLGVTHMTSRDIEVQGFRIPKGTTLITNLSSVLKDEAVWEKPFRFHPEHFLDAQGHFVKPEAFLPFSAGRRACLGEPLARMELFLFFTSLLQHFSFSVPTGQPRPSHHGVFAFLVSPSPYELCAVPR
Chain of Cytochrome P450 2C19 (P33261 whole entry): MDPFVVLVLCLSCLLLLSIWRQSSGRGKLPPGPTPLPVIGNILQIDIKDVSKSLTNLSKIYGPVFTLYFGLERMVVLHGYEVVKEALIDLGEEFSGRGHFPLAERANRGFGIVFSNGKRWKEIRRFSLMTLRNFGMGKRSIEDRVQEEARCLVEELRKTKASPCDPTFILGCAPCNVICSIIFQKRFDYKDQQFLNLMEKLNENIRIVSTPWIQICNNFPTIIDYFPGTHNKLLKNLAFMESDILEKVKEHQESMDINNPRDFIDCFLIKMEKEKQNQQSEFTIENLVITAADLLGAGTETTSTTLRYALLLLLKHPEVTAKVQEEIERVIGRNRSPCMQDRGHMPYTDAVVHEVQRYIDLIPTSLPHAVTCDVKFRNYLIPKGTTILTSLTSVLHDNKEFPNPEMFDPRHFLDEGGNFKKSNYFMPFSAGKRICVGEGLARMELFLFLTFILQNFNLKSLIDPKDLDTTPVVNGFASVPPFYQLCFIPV
Chain of Cytochrome P450 3A4 (P08684 whole entry): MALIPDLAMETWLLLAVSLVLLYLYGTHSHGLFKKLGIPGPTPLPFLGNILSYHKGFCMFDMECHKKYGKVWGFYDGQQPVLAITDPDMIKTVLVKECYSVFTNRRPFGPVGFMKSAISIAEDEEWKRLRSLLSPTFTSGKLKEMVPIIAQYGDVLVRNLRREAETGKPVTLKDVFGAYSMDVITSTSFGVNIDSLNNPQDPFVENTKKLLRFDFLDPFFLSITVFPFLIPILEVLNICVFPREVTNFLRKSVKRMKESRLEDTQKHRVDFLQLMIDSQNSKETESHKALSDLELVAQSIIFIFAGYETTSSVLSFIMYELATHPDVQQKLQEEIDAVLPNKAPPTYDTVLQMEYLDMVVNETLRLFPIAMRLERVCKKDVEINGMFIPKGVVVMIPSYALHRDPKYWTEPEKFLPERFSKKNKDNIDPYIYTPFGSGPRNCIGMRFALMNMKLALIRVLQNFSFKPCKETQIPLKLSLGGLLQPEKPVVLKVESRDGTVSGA

CCCOc1nncc(-c2cnnc(OCCN(C)C)n2)n1
Activity [1]: Non-Toxic
Drug metabolism [2]: Metabolite_Detected
blood plasma ratio at 10 min [3]: 1.3
half-life [4]: 12 min
Cmax [5]: 89.4 nM
dose excreted at 24 h [6]: < 3%
efflux ratio at 2 h [7]: 1.1
metabolised at 4 h [8]: 15%
Drug metabolism [9]: Metabolite_Detected
Drug metabolism [10]: Metabolite_Detected
EC50 [11]: 2.9 µM
Drug metabolism [12]: Metabolite_Detected
solubility kinetic [13]: > 100 µg/mL
half-life [14]: 23.4 min
half-life [15]: 180 min
Activity [16]: 100%
selectivity ratio [17]: > 1000
Drug metabolism [18]: Metabolite_Detected
Drug metabolism [19]: Metabolite_Detected
Drug metabolism [20]: Metabolite_Detected
IC50 [21]: > 20 µM
Drug metabolism [22]: Metabolite_Notdetected
Drug metabolism [23]: Metabolite_Detected
Drug metabolism [24]: Metabolite_Detected
Drug metabolism [25]: Metabolite_Detected
AUC(0-inf) [26]: 0.658 µM·h
IC50 [27]: 0.023 µM
EC50 [28]: 36 µM
Papp A→B at 2 h [29]: 40 ×10⁻⁶ cm/s
Drug metabolism [30]: Metabolite_Notdetected
IC50 [31]: > 20 µM
Drug metabolism [32]: Metabolite_Detected
Drug metabolism [33]: Metabolite_Detected
IC50 [34]: > 20 µM
microsomal CLint [35]: 8 µL/min/mg
IC50 [36]: > 20 µM
Drug metabolism [37]: Metabolite_Detected
Drug metabolism [38]: Metabolite_Detected
Drug metabolism [39]: Metabolite_Detected
